From patent publication US4556517A, “Carbapenem derivatives” (Shionogi & Co., Ltd., priority 1981, dated 1985)
Converted amounts (≈) assume the structure as drawn.

Assays:
[1] = molecular target: β-lactamase of Enterobacter cloacae 92 (cephalosporinase type) (Enterobacter cloacae, UniProt P05364); assay: β-Lactamase inhibitory test, cephalosporinase-type; assay type: biochemical; details: 10 minutes preincubation, room temperature, minimum concentration to inhibit color change of indicator
Procedure: *1 producing lactamase of cephalosporinasetype
(§1) *3 The test compound was incubated with enzyme at room temperature for 10
(§2) minutes prior to adding an indicator and the minimum concentration to
(§3) inhibit color change was determined.

[2] = system: Staphylococcus aureus 209P JC-1; assay: Antibacterial Spectrum, agar dilution method; assay type: cell-based; details: inoculum 10^6 cells/ml, sensitivity disc agar, 37° C. overnight, read-out: Minimum Inhibitory Concentration
Procedure: (§4) Determined by agar dilution method;
(§5) Inoculum size is 10^6 cells/ml;
(§6) Cultivation in sensitivitydisc agar at 37° C. overnight.

[3] = system: Klebsiella pneumoniae SRL-1; assay: Antibacterial Spectrum, agar dilution method; assay type: cell-based; details: SRL1, inoculum 10^6 cells/ml, sensitivity disc agar, 37° C. overnight, read-out: Minimum Inhibitory Concentration
Procedure: as §4, §5, §6

[4] = system: Escherichia coli NIHJ JC-2; assay: Antibacterial Spectrum, agar dilution method; assay type: cell-based; details: NIHJJC2, inoculum 10^6 cells/ml, sensitivity disc agar, 37° C. overnight, read-out: Minimum Inhibitory Concentration
Procedure: as §4, §5, §6

[5] = system: Pseudomonas aeruginosa ATCC 25619; assay: Antibacterial Spectrum, agar dilution method; assay type: cell-based; details: ATCC25619, inoculum 10^6 cells/ml, sensitivity disc agar, 37° C. overnight, read-out: Minimum Inhibitory Concentration
Procedure: as §4, §5, §6

Proteus mirabilis PR-4 = assay: Antibacterial Spectrum, agar dilution method; assay type: cell-based; details: PR4, inoculum 10^6 cells/ml, sensitivity disc agar, 37° C. overnight, read-out: Minimum Inhibitory Concentration
Procedure: as §4, §5, §6

[6] = system: Streptococcus pneumoniae I; assay: Antibacterial Spectrum, agar dilution method; assay type: cell-based; details: inoculum 10^6 cells/ml, sensitivity disc agar, 37° C. overnight, read-out: Minimum Inhibitory Concentration
Procedure: as §4, §5, §6

Enterobacter cloacae 233 = assay: Antibacterial Spectrum, agar dilution method; assay type: cell-based; details: inoculum 10^6 cells/ml, sensitivity disc agar, 37° C. overnight, read-out: Minimum Inhibitory Concentration
Procedure: as §4, §5, §6

Klebsiella sp. 363(R) = assay: Antibacterial Spectrum, agar dilution method; assay type: cell-based; details: inoculum 10^6 cells/ml, sensitivity disc agar, 37° C. overnight, read-out: Minimum Inhibitory Concentration
Procedure: as §4, §5, §6

[7] = system: β-lactamase of Klebsiella sp. 363 (penicillinase type); assay: β-Lactamase inhibitory test, penicillinase-type; assay type: biochemical; details: 10 minutes preincubation, room temperature, minimum concentration to inhibit color change of indicator
Procedure: *2 producing lactamase of penicillinasetype
as §1, §2, §3

β-lactamase of Enterobacter cloacae 92 (cephalosporinase type), sequence (P05364 21-381): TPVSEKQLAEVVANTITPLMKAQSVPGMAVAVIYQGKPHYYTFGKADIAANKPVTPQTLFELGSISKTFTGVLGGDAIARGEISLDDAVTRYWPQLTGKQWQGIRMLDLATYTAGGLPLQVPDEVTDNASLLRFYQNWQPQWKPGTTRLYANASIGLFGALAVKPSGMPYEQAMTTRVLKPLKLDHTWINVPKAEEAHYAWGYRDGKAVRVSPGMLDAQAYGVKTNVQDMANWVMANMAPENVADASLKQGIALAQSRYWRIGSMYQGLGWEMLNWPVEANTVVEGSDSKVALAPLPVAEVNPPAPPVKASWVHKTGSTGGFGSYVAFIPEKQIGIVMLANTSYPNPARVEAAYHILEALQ

| SMILES | Minimum Effective Concentration [1] | MIC [2] | MIC [3] | MIC [4] | MIC [5] | MIC (Proteus mirabilis PR-4) | MIC [6] | MIC (Enterobacter cloacae 233) | MIC (Klebsiella sp. 363(R)) | Minimum Effective Concentration [7] |
| --- | --- | --- | --- | --- | --- | --- | --- | --- | --- | --- |
| CC(OS(=O)(=O)O)C1C(=O)N2C(C(=O)O)=C([S+]([O-])CO)CC12 (stereo not drawn) [Dihydro PLM C, 3-hydroxymethylsulfinyl-6-(1-hydroxysulfonyloxyethyl)-7-oxo-1-azabicyclo[3.2.0]-hept-2-ene-2-carboxylic acid] | 0.008 µg/mL | 12.5 µg/mL (≈ 35.2 µM) | 25 µg/mL (≈ 70.4 µM) | 12.5 µg/mL (≈ 35.2 µM) | > 100 µg/mL | 25 µg/mL (≈ 70.4 µM) | 3.1 µg/mL (≈ 8.72 µM) | > 100 µg/mL | 12.5 µg/mL (≈ 35.2 µM) | 0.004 µg/mL |
| CC(OS(=O)(=O)O)C1C(=O)N2C(C(=O)O)=C(SC(O)O)CC12 (stereo not drawn) [Deoxy PLM C, 3-dihydroxymethylthio-6-(1-hydroxysulfonyloxyethyl)-7-oxo-1-azabicyclo[3.2.0]-hept-2-ene-2-carboxylic acid] | 0.002 µg/mL | 0.78 µg/mL (≈ 2.2 µM) | 0.78 µg/mL (≈ 2.2 µM) | 0.78 µg/mL (≈ 2.2 µM) | > 100 µg/mL | 0.78 µg/mL (≈ 2.2 µM) | 0.2 µg/mL (≈ 0.563 µM) | 3.13 µg/mL (≈ 8.81 µM) | 0.78 µg/mL (≈ 2.2 µM) | 0.125 µg/mL |
| CC(OS(=O)(=O)O)C1C(=O)N2C(C(=O)O)=C(SCC(=O)O)CC12 (stereo not drawn) [Deoxy PLM B, 3-Carboxymethylthio-6-(1-hydroxysulfonyloxyethyl)-7-oxo-1-azabicyclo[3.2.0]-hept-2-ene-2-carboxylic acid] | 0.002 µg/mL | 3.13 µg/mL (≈ 8.52 µM) | 0.78 µg/mL (≈ 2.12 µM) | 1.56 µg/mL (≈ 4.25 µM) | > 100 µg/mL | 0.78 µg/mL (≈ 2.12 µM) | 1.56 µg/mL (≈ 4.25 µM) | 6.25 µg/mL (≈ 17 µM) | 1.56 µg/mL (≈ 4.25 µM) | 0.063 µg/mL |
